Data reported in ChEMBL document CHEMBL1201862, “PubChem BioAssay data set” (2004).
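Cultured in 96-well plates, cells were exposed to test compound for 48 hours across five concentrations. The concentration for 50% growth inhibition is given as GI50.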 The source made the active and inactive calls. Cut-off read from the data, not from the text of the source: active = GI50 up to about 1.1 µM and inactive = higher.

How the values were obtained:
Assay in all cases: NCI anticancer screen, dose series, 48 h
786-0 = test system: 786-0
A498 = test system: A498
A549 = test system: A549
ACHN = test system: ACHN
CAKI-1 = test system: CAKI-1
CCRF-CEM = test system: CCRF-CEM
COLO 205 = test system: COLO 205
DU-145 = test system: DU-145
EKVX = test system: EKVX
HCC 2998 = test system: HCC 2998
HCT-116 = test system: HCT-116
HCT-15 = test system: HCT-15
HL-60 = test system: HL-60
HOP-62 = test system: HOP-62
HOP-92 = test system: HOP-92
HT-29 = test system: HT-29
Hs-578T = test system: Hs-578T
IGROV-1 = test system: IGROV-1
K562 = test system: K562
KM12 = test system: KM12
LOX IMVI = test system: LOX IMVI
M14 = test system: M14
MCF7 = test system: MCF7
MDA-MB-435 = test system: MDA-MB-435
MDA-N = test system: MDA-N
MOLT-4 = test system: MOLT-4
Malme-3M = test system: Malme-3M
NCI-H226 = test system: NCI-H226
NCI-H23 = test system: NCI-H23
NCI-H460 = test system: NCI-H460
NCI-H522 = test system: NCI-H522
NCI/ADR-RES = test system: NCI/ADR-RES
OVCAR-3 = test system: OVCAR-3
OVCAR-4 = test system: OVCAR-4
OVCAR-5 = test system: OVCAR-5
PC-3 = test system: PC-3
RPMI-8226 = test system: RPMI-8226
RXF 393 = test system: RXF 393
SF-268 = test system: SF-268
SF-295 = test system: SF-295
SF-539 = test system: SF-539
SK-MEL-28 = test system: SK-MEL-28
SK-MEL-2 = test system: SK-MEL-2
SK-MEL-5 = test system: SK-MEL-5
SK-OV-3 = test system: SK-OV-3
SN12C = test system: SN12C
SNB-19 = test system: SNB-19
SR = test system: SR
SW-620 = test system: SW-620
T47D = test system: T47D
TK-10 = test system: TK-10
U-251 = test system: U-251
UACC-257 = test system: UACC-257
UACC-62 = test system: UACC-62
UO-31 = test system: UO-31

OC(c1ccccc1)c1c(-c2ccccc2)[nH]c(-c2ccccc2)c1C(O)c1ccccc1 (stereo not given)
GI50 (786-0): 4.38 µM (inactive) | GI50 (A498): 3.79 µM (inactive) | GI50 (A549): 3.73 µM (inactive) | GI50 (ACHN): 3.17 µM (inactive) | GI50 (CAKI-1): 2.55 µM (inactive) | GI50 (CCRF-CEM): 2.65 µM (inactive) | GI50 (COLO 205): 1.74 µM (inactive) | GI50 (DU-145): 5.28 µM (inactive) | GI50 (EKVX): 3.21 µM (inactive) | GI50 (HCC 2998): 7.24 µM (inactive) | GI50 (HCT-116): 2.84 µM (inactive) | GI50 (HCT-15): 3.76 µM | GI50 (HL-60): 2.28 µM (inactive) | GI50 (HOP-62): 4.58 µM (inactive) | GI50 (HOP-92): 2.19 µM (inactive) | GI50 (HT-29): 3.99 µM (inactive) | GI50 (Hs-578T): 3.76 µM (inactive) | GI50 (IGROV-1): 3.18 µM (inactive) | GI50 (K562): 2.03 µM (inactive) | GI50 (KM12): 3.25 µM (inactive) | GI50 (LOX IMVI): 2.19 µM (inactive) | GI50 (M14): 3.66 µM (inactive) | GI50 (MCF7): 3.78 µM (inactive) | GI50 (MDA-MB-435): 3.18 µM (inactive) | GI50 (MDA-N): 2.59 µM (inactive) | GI50 (MOLT-4): 2.94 µM (inactive) | GI50 (Malme-3M): 2.59 µM (inactive) | GI50 (NCI-H226): 2.4 µM (inactive) | GI50 (NCI-H23): 3.52 µM (inactive) | GI50 (NCI-H460): 3.06 µM (inactive) | GI50 (NCI-H522): 3.27 µM (inactive) | GI50 (NCI/ADR-RES): 2.69 µM (inactive) | GI50 (OVCAR-3): 2.5 µM (inactive) | GI50 (OVCAR-4): < 0.01 µM (active) | GI50 (OVCAR-5): 2.77 µM (inactive) | GI50 (PC-3): 2.54 µM (inactive) | GI50 (RPMI-8226): 2.09 µM (inactive) | GI50 (RXF 393): 2.88 µM (inactive) | GI50 (SF-268): 4.16 µM (inactive) | GI50 (SF-295): 3.75 µM (inactive) | GI50 (SF-539): 2.95 µM (inactive) | GI50 (SK-MEL-28): 3.4 µM (inactive) | GI50 (SK-MEL-2): 1.95 µM (inactive) | GI50 (SK-MEL-5): 2.55 µM (inactive) | GI50 (SK-OV-3): 4.25 µM (inactive) | GI50 (SN12C): 2.38 µM (inactive) | GI50 (SNB-19): 3.56 µM (inactive) | GI50 (SR): 4.1 µM (inactive) | GI50 (SW-620): 4.9 µM (inactive) | GI50 (T47D): 4.86 µM (inactive) | GI50 (TK-10): 4.44 µM (inactive) | GI50 (U-251): 3.78 µM (inactive) | GI50 (UACC-257): 3.04 µM (inactive) | GI50 (UACC-62): 2.84 µM (inactive) | GI50 (UO-31): 1.45 µM (inactive)
